In patent US20220354870A1, “READY-TO-USE BUPIVISONE PLUS LIQUID FORMULATION” (LEITERS, Inc., priority 2021, published 2022):
Entries after “also recorded” stand apart in the source; their conditions may differ. Where a name gives a salt, the structure may show the parent alone.

Legend:
Format in all cases: physicochemical
[1] = Stability testing of syringed formulation with methylparaban (Example 2); conditions: stability study
Description: (§1) The samples were produced using an approved batch record and shipped to contract laboratories for stability testing. The samples were stored according to ICH Q1A (R2) as follows: • Long term: Refrigerated (5° C. ±3° C.) in Horizontal Orientation, Protected from Light • Accelerated Condition: Room Temperature (25° C. ±2° C. and 40% RH ±5% RH) Horizontal Orientation, Protected from Light
(§2) The method development procedure for the strength and potency aligned with the defined criteria in USP <1225> for a stability indicating method. The procedures used for microbiology testing were based on method suitability performed at T0.

[2] = Stability testing of syringed formulation prepared without preservative (Example 3); conditions: stability study
Description: The formulations without a preservative were prepared following the method described in Example 1 except no preservative(s) was used.
as §1, §2

[3] = Potency after room temperature storage of syringe in nitrogen-flushed hermetically sealed pouch (Example 4); conditions: formulation of Table 4 (no preservative) in syringe, hermetically sealed pouch flushed with nitrogen
Description: A preliminary evaluation of the feasibility of packaging syringes was performed. Hermetically sealed pouch containing a syringe with the exemplary formulation from Table 4 was flushed with nitrogen to reduce oxygen levels.

Compound	Impurities of the active versus FDA/ICH guidelines [1]	Impurities of the active versus limits of ICH guidelines, FDA and in-house SOP [2]	Potency (% label claim) after storage at room temperature for 90 days [3] [%]	Impurities of the active versus FDA/ICH guidelines ([1]; hydrochloride)	Impurities of the active versus FDA/ICH guidelines ([1]; listed as Bupivicaine, hydrochloride)
CNC[C@H](O)c1ccc(O)c(O)c1 [Epinephrine, epinephrine]	met FDA/ICH Guidelines; also recorded: met the acceptable limits	met the acceptable limits	104.2		
CCCCN1CCCCC1C(=O)Nc1c(C)cccc1C (stereo not shown) [Bupivacaine HCl, bupivacaine hydrochloride]		met the acceptable limits	97.2	met FDA/ICH Guidelines	met the acceptable limits
